Data: ChEMBL document CHEMBL6177932 (J Med Chem, 2024)
Active and inactive are the calls of the source. No cut-off for these calls is given here.

Columns and labels:
[1] = target: T1, Vitamin D3 receptor (Mus musculus) (UniProt P48281); assay: Agonist activity at VDR in mouse 4T1 cells assessed as induction of Cyp24a1 gene at 0.1 to 10 uM measured after 24 hrs by RT-qPCR analysis; type: cell-based; details: filed as agonist, dose 0.1-10 µM
T1 sequence (whole entry): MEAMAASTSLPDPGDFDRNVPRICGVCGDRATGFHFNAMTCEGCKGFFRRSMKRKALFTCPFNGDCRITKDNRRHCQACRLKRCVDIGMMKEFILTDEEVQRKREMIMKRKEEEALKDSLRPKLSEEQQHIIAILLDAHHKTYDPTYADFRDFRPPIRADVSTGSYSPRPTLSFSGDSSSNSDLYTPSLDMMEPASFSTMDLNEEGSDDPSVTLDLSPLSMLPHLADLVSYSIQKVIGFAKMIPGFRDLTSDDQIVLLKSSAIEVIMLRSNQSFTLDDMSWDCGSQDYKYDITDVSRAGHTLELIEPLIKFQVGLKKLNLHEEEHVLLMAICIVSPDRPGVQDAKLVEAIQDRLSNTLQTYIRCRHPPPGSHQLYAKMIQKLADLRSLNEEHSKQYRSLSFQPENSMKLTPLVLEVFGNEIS

[2] = target: T2, Protein deacetylase HDAC6 (Mus musculus) (UniProt Q9Z2V5); assay: Inhibition of HDAC6 in mouse 4T1 cells assessed as induction of tubulin acetylation at 10 uM measured after 6 hrs by Western blot analysis; type: cell-based
T2 sequence (whole entry): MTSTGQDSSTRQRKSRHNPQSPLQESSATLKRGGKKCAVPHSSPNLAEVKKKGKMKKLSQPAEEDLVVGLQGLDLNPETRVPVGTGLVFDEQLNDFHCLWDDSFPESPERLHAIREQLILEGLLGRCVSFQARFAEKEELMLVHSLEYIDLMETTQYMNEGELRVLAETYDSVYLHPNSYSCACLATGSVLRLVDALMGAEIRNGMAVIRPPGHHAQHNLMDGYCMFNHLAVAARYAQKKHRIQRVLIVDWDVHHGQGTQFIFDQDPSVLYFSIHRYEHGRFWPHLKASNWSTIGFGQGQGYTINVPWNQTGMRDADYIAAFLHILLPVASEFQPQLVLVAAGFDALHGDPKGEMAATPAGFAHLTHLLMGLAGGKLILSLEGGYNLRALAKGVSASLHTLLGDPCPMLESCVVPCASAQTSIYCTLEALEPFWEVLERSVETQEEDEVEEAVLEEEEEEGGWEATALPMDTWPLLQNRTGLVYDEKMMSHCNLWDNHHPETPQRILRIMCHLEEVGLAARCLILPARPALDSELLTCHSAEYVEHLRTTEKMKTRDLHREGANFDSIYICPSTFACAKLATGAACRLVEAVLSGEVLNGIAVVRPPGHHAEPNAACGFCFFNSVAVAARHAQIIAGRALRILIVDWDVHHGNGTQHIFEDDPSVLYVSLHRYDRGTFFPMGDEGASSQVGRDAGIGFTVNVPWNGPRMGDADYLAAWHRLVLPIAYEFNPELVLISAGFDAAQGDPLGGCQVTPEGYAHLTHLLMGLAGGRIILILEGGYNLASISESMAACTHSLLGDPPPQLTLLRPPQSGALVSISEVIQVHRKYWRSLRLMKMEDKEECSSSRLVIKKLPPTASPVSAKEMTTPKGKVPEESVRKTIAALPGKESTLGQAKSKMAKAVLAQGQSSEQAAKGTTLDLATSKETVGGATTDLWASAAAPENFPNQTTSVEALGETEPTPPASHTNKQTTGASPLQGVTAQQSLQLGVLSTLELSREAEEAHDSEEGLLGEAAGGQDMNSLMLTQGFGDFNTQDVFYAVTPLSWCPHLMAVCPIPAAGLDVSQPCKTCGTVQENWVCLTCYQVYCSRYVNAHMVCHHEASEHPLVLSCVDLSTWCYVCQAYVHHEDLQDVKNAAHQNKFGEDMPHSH

[3] = system: 4TO7; assay: Inhibition of class 1 HDAC in mouse 4TO7 cells assessed as induction of H3K9 acetylation at 10 uM measured after 6 hrs by Western blot analysis; type: cell-based
[4] = target: T1, Vitamin D3 receptor (Mus musculus); assay: Agonist activity at VDR in mouse B16-F10 cells assessed as induction of Cyp24a1 gene at 1 to 10 uM measured after 24 hrs by RT-qPCR analysis; type: cell-based; details: filed as agonist, dose 1-10 µM
[5] = target: T2, Protein deacetylase HDAC6 (Mus musculus); assay: Inhibition of HDAC6 in mouse B16-F10 cells assessed as induction of tubulin acetylation at 10 uM measured after 6 hrs by Western blot analysis; type: cell-based
[6] = system: B16-F10; assay: Inhibition of class 1 HDAC in mouse B16-F10 cells assessed as induction of H3K9 acetylation at 10 uM measured after 6 hrs by Western blot analysis; type: cell-based
[7] = Toxicity in mouse B16-F10 cells implanted C57BL/6 mouse assessed as effect on body weight at 5 mg/kg, ip administered daily for 28 days; type: organism-based; details: in vivo, time 28 day
[8] = system: Mus musculus; assay: Immunomodulatory activity in mouse 4T1 cells implanted BALB/c mouse assessed as reduction in Ccl2 gene expression at 1.5 to 5 mg/kg, ip administered daily for 18 days by RT-qPCR analysis; type: functional, organism-based; details: dose 1.5-5 mg/kg, time 18.0 day
[9] = system: Mus musculus; assay: Immunomodulatory activity in mouse 4T1 cells implanted BALB/c mouse assessed as reduction in Ccl5 gene expression at 1.5 to 5 mg/kg, ip administered daily for 18 days by RT-qPCR analysis; type: functional, organism-based; details: dose 1.5-5 mg/kg, time 18.0 day
[10] = system: Mus musculus; assay: Immunomodulatory activity in mouse 4T1 cells implanted BALB/c mouse assessed as reduction in Cxcl10 gene expression at 1.5 to 5 mg/kg, ip administered daily for 18 days by RT-qPCR analysis; type: functional, organism-based; details: dose 1.5-5 mg/kg, time 18.0 day
[11] = target: Vitamin D3 receptor (Mus musculus) (UniProt P48281); assay: In vivo agonist activity at VDR in mouse B16-F10 cells implanted C57BL/6 mouse assessed as induction of VDR gene in tumor at 5 mg/kg, ip administered 2 times at 24 hrs interval by RT-qPCR analysis; details: time 48.0 hrs
[12] = target: Vitamin D3 receptor (Mus musculus) (UniProt P48281); assay: In vivo agonist activity at VDR in mouse B16-F10 cells implanted C57BL/6 mouse assessed as induction of Cyp24al gene in tumor at 5 mg/kg, ip administered 2 times at 24 hrs interval by RT-qPCR analysis; details: time 48.0 hrs

- Activity [1]: Active
- inhibition [2]: Active; Most Efficacious Than Saha
- Activity [4]: Active
- Activity [11]: Active
- Activity [12]: Active
SMILES: CCC(CC)(c1ccc(C(=O)NCCCCC(=O)NO)cc1)c1ccc(OCC(O)C(C)(C)C)c(C)n1 (configuration not stated)
- inhibition [3]: Active; Induced Higher Levels Of Acetylation Than Saha
- inhibition [5]: Active; Acetylation Was Comparable Or Greater Than Saha
- inhibition [6]: Active; Acetylation Was Comparable Or Greater Than Saha
- Activity [7]: Non-toxic
- Activity [8]: Active
- Activity [9]: Active
- Activity [10]: Active
